Reference: PubChem BioAssay (NCI)
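The concentration for 50% growth inhibition is given as GI50. TGI marks complete inhibition of growth.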

Key:
Experiment in all cases: NCI tumour cell line growth inhibition, 384-well format
OVCAR-4 ovarian = tested on: OVCAR-4 ovarian
SF-268 CNS = tested on: SF-268 CNS
RXF 393 renal = tested on: RXF 393 renal
A549 NSCLC = tested on: A549 NSCLC
NCI-H23 lung = tested on: NCI-H23 lung
HCT-15 colon = tested on: HCT-15 colon
SR leukemia = tested on: SR leukemia
MDA-MB-468 breast = tested on: MDA-MB-468 breast
HCT-116 colon = tested on: HCT-116 colon
SF-295 CNS = tested on: SF-295 CNS
MCF7 breast = tested on: MCF7 breast
MOLT-4 leukemia = tested on: MOLT-4 leukemia
SF-539 CNS = tested on: SF-539 CNS
SK-MEL-28 melanoma = tested on: SK-MEL-28 melanoma
UO-31 renal = tested on: UO-31 renal
IGROV1 ovarian = tested on: IGROV1 ovarian
NCI-H226 lung = tested on: NCI-H226 lung
LOX IMVI melanoma = tested on: LOX IMVI melanoma
M14 melanoma = tested on: M14 melanoma
HT29 colon = tested on: HT29 colon
OVCAR-3 ovarian = tested on: OVCAR-3 ovarian
HS 578T breast = tested on: HS 578T breast
T-47D breast = tested on: T-47D breast
SNB-75 CNS = tested on: SNB-75 CNS
ACHN renal = tested on: ACHN renal
UACC-62 melanoma = tested on: UACC-62 melanoma
SK-OV-3 ovarian = tested on: SK-OV-3 ovarian
K-562 leukemia = tested on: K-562 leukemia
U251 glioblastoma = tested on: U251 glioblastoma
MALME-3M melanoma = tested on: MALME-3M melanoma
786-0 renal = tested on: 786-0 renal
MDA-MB-231 breast = tested on: MDA-MB-231 breast
NCI-H460 NSCLC = tested on: NCI-H460 NSCLC
CCRF-CEM leukemia = tested on: CCRF-CEM leukemia
NCI-H322M lung = tested on: NCI-H322M lung
NCI-H522 lung = tested on: NCI-H522 lung
KM12 colon = tested on: KM12 colon
EKVX NSCLC = tested on: EKVX NSCLC
TK-10 renal = tested on: TK-10 renal
PC-3 prostate = tested on: PC-3 prostate
HL-60(TB) leukemia = tested on: HL-60(TB) leukemia
CAKI-1 renal = tested on: CAKI-1 renal
NCI/ADR-RES ovarian = tested on: NCI/ADR-RES ovarian
HOP-62 NSCLC = tested on: HOP-62 NSCLC
A498 renal = tested on: A498 renal
DU-145 prostate = tested on: DU-145 prostate
HCC-2998 colon = tested on: HCC-2998 colon
SW-620 colon = tested on: SW-620 colon
HOP-92 NSCLC = tested on: HOP-92 NSCLC
RPMI-8226 leukemia = tested on: RPMI-8226 leukemia
UACC-257 melanoma = tested on: UACC-257 melanoma
COLO 205 colon = tested on: COLO 205 colon
SNB-19 CNS = tested on: SNB-19 CNS
SN12C renal = tested on: SN12C renal
OVCAR-8 ovarian = tested on: OVCAR-8 ovarian
MDA-MB-435 melanoma = tested on: MDA-MB-435 melanoma
BT-549 breast = tested on: BT-549 breast
SK-MEL-5 melanoma = tested on: SK-MEL-5 melanoma

CNCc1ccc(-c2cc(-c3nc(-c4ccc(S(=O)(=O)C(C)C)cc4)cnc3N)on2)cc1
GI50 (OVCAR-4 ovarian): 313 nM
TGI (OVCAR-4 ovarian): 1310 nM
GI50 (SF-268 CNS): 781 nM
TGI (SF-268 CNS): 2060 nM
GI50 (RXF 393 renal): 216 nM
TGI (RXF 393 renal): 791 nM
GI50 (A549 NSCLC): 427 nM
TGI (A549 NSCLC): 1810 nM
GI50 (NCI-H23 lung): 162 nM
TGI (NCI-H23 lung): 916 nM
GI50 (HCT-15 colon): 127 nM
TGI (HCT-15 colon): 315 nM
TGI (SR leukemia): 18.5 nM
GI50 (MDA-MB-468 breast): 570 nM
TGI (MDA-MB-468 breast): 1850 nM
GI50 (HCT-116 colon): 242 nM
TGI (HCT-116 colon): 1330 nM
GI50 (SF-295 CNS): 1060 nM
TGI (SF-295 CNS): 4100 nM
GI50 (MCF7 breast): 105 nM
TGI (MCF7 breast): 1250 nM
GI50 (MOLT-4 leukemia): 66.3 nM
TGI (MOLT-4 leukemia): 204 nM
GI50 (SF-539 CNS): 135 nM
TGI (SF-539 CNS): 310 nM
GI50 (SK-MEL-28 melanoma): 1420 nM
TGI (SK-MEL-28 melanoma): 2730 nM
GI50 (UO-31 renal): 285 nM
TGI (UO-31 renal): 1400 nM
GI50 (IGROV1 ovarian): 211 nM
TGI (IGROV1 ovarian): 1340 nM
GI50 (NCI-H226 lung): 3070 nM
TGI (NCI-H226 lung): 9520 nM
GI50 (LOX IMVI melanoma): 303 nM
TGI (LOX IMVI melanoma): 1400 nM
GI50 (M14 melanoma): 318 nM
TGI (M14 melanoma): 1140 nM
GI50 (HT29 colon): 324 nM
TGI (HT29 colon): 1060 nM
GI50 (OVCAR-3 ovarian): 145 nM
TGI (OVCAR-3 ovarian): 1500 nM
GI50 (HS 578T breast): 138 nM
TGI (HS 578T breast): 454 nM
GI50 (T-47D breast): 10400 nM
TGI (T-47D breast): 22200 nM
GI50 (SNB-75 CNS): 1150 nM
TGI (SNB-75 CNS): 2380 nM
GI50 (ACHN renal): 151 nM
TGI (ACHN renal): 1240 nM
GI50 (UACC-62 melanoma): 1060 nM
TGI (UACC-62 melanoma): 2240 nM
GI50 (SK-OV-3 ovarian): 242 nM
TGI (SK-OV-3 ovarian): 1360 nM
GI50 (K-562 leukemia): 250 nM
TGI (K-562 leukemia): 1170 nM
GI50 (U251 glioblastoma): 460 nM
TGI (U251 glioblastoma): 1660 nM
GI50 (MALME-3M melanoma): 307 nM
TGI (MALME-3M melanoma): 1330 nM
GI50 ([…]-0 renal): 150 nM
TGI (786-0 renal): 486 nM
GI50 (MDA-MB-231 breast): 1210 nM
TGI (MDA-MB-231 breast): 2730 nM
GI50 (NCI-H460 NSCLC): 57.5 nM
TGI (NCI-H460 NSCLC): 334 nM
GI50 (CCRF-CEM leukemia): 40.9 nM
TGI (CCRF-CEM leukemia): 161 nM
GI50 (NCI-H322M lung): 139 nM
TGI (NCI-H322M lung): 1180 nM
GI50 (NCI-H522 lung): 6610 nM
TGI (NCI-H522 lung): 20200 nM
GI50 (KM12 colon): 131 nM
TGI (KM12 colon): 559 nM
GI50 (EKVX NSCLC): 1000 nM
TGI (EKVX NSCLC): 2230 nM
GI50 (TK-10 renal): 57.3 nM
TGI (TK-10 renal): 347 nM
GI50 (PC-3 prostate): 506 nM
TGI (PC-3 prostate): 2040 nM
GI50 (HL-60(TB) leukemia): 114 nM
TGI (HL-60(TB) leukemia): 248 nM
GI50 (CAKI-1 renal): 735 nM
TGI (CAKI-1 renal): 2050 nM
GI50 (NCI/ADR-RES ovarian): 1310 nM
TGI (NCI/ADR-RES ovarian): 2680 nM
GI50 (HOP-62 NSCLC): 291 nM
TGI (HOP-62 NSCLC): 1460 nM
GI50 (A498 renal): 42.2 nM
TGI (A498 renal): 183 nM
GI50 (DU-145 prostate): 250 nM
TGI (DU-145 prostate): 1320 nM
GI50 (HCC-2998 colon): 29.5 nM
TGI (HCC-2998 colon): 192 nM
GI50 (SW-620 colon): 267 nM
TGI (SW-620 colon): 1260 nM
GI50 (HOP-92 NSCLC): 336 nM
TGI (HOP-92 NSCLC): 1410 nM
GI50 (RPMI-8226 leukemia): 132 nM
TGI (RPMI-8226 leukemia): 355 nM
GI50 (UACC-257 melanoma): 248 nM
TGI (UACC-257 melanoma): 870 nM
GI50 (COLO 205 colon): 1040 nM
TGI (COLO 205 colon): 6580 nM
GI50 (SNB-19 CNS): 1130 nM
TGI (SNB-19 CNS): 2480 nM
GI50 (SN12C renal): 1290 nM
TGI (SN12C renal): 5490 nM
GI50 (OVCAR-8 ovarian): 534 nM
TGI (OVCAR-8 ovarian): 1770 nM
GI50 (MDA-MB-435 melanoma): 484 nM
TGI (MDA-MB-435 melanoma): 1600 nM
GI50 (BT-549 breast): 173 nM
TGI (BT-549 breast): 489 nM
GI50 (SK-MEL-5 melanoma): 1320 nM
TGI (SK-MEL-5 melanoma): 2600 nM
